± gives the expanded uncertainty stated by the source.
Conditions: Liquid, Closed cell (Static) method

O [water]
Conditions | vapor or sublimation pressure [kPa]
298 K | 3.35 ± 2.4
313 K | 7.4 ± 2.4
323 K | 12.12 ± 2.4
328.2 K | 15.07 ± 2.4
333 K | 18.99 ± 2.4
337.5 K | 23.33 ± 2.4
